Data on 15 compounds can be found in the Kinase Knowledgebase extract (Sharma et al. 2016).

Assay [1] addresses PIK3CD (Human) (UniProt O00329). Put plainly: Assessment of PIK3CD Kinase Activity.
In assay [2] the target is PIK3CA (human) (UniProt P42336). Briefly: Assessment of PIK3CA Kinase Activity.
The target in assay [3] is PIK3CG (human) (UniProt P48736). Put plainly: Assessment of PIK3CG Kinase Activity.
Assay [4] has as its target PIK3CB (Human) (UniProt P42338). Briefly: Assessment of PIK3CB Kinase Activity.

PIK3CB (Human), sequence (P42338 whole entry, looked up): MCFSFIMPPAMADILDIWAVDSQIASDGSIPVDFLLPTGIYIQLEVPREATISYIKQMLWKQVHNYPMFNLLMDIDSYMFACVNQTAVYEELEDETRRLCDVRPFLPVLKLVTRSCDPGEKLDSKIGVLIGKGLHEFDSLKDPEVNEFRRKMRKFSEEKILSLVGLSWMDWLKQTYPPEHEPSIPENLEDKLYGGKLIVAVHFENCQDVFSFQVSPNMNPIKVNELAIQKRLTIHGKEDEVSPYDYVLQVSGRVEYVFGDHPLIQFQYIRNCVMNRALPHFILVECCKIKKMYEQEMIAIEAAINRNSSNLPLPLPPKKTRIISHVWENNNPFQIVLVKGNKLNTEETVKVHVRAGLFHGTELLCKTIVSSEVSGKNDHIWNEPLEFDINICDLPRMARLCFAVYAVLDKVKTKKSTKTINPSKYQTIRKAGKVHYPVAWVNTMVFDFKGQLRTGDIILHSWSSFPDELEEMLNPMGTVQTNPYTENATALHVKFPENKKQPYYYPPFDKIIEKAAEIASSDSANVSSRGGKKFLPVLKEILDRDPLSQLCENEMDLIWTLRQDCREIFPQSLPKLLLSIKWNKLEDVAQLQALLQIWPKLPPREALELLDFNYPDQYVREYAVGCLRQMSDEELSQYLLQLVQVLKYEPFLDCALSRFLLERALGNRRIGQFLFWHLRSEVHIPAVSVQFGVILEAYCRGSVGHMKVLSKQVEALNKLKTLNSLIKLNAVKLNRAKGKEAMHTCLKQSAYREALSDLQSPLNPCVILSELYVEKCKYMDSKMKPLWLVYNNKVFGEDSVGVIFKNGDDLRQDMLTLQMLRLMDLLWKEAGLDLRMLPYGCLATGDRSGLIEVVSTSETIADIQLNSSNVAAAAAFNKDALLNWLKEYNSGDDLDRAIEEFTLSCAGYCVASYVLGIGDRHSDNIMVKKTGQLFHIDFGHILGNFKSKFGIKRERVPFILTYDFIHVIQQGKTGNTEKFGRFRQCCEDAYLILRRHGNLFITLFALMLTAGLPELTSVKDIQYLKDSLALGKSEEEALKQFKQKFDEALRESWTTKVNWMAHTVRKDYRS
PIK3CD (Human), sequence (O00329 whole entry, looked up): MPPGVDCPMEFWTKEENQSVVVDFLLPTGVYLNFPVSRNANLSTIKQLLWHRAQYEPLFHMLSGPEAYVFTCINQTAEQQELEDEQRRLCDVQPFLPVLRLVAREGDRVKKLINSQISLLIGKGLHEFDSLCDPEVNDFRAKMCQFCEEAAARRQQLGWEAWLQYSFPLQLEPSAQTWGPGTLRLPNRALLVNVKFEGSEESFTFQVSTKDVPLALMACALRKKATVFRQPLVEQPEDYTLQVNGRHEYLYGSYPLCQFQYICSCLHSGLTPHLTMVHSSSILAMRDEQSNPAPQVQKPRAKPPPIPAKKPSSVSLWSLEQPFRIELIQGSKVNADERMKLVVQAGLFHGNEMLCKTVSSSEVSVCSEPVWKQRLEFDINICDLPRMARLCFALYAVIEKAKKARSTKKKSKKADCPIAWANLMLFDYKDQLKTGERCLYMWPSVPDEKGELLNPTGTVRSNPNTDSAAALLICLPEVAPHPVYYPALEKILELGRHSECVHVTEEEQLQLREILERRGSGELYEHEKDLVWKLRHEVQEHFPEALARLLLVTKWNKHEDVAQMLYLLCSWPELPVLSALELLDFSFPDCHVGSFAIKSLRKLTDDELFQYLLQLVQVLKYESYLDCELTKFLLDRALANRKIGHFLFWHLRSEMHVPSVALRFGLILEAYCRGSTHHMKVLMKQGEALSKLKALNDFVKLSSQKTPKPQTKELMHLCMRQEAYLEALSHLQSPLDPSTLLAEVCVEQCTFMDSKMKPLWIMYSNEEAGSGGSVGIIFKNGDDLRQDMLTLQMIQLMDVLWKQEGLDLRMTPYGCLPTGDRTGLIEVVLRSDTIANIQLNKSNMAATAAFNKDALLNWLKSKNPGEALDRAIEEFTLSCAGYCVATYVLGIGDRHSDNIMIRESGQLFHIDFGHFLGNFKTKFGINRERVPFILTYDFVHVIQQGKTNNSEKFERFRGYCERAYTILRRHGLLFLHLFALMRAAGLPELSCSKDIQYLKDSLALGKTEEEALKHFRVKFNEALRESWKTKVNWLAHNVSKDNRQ
PIK3CG (human), sequence (P48736 whole entry, looked up): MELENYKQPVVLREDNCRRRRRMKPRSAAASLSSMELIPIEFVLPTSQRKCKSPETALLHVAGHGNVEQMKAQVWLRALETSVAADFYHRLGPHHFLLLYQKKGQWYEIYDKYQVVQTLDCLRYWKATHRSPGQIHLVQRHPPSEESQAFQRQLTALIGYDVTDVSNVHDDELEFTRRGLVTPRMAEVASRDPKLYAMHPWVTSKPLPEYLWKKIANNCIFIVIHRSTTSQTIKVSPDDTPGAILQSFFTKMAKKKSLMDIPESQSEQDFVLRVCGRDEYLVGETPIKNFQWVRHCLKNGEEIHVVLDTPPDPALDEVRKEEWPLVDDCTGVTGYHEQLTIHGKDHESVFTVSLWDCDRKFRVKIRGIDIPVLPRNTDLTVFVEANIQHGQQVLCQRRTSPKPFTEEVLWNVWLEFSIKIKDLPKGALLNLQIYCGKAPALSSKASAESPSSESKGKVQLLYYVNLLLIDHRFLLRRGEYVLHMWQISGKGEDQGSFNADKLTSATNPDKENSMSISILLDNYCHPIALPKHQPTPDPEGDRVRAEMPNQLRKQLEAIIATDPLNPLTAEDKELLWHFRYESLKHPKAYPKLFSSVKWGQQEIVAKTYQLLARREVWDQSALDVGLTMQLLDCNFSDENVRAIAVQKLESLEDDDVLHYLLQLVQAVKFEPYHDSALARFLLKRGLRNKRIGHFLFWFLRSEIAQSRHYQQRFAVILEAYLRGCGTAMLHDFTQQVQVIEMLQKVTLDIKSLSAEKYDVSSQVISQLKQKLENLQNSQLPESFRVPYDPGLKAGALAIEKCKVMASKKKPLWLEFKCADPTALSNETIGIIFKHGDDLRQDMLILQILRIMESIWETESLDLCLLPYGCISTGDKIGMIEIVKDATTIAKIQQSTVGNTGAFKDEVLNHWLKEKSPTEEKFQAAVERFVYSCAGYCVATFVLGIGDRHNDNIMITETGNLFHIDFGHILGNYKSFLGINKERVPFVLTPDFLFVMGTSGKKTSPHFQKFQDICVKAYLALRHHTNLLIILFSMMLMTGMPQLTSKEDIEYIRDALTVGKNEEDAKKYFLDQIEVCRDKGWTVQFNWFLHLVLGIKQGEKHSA
PIK3CA (human), sequence (P42336 whole entry, looked up): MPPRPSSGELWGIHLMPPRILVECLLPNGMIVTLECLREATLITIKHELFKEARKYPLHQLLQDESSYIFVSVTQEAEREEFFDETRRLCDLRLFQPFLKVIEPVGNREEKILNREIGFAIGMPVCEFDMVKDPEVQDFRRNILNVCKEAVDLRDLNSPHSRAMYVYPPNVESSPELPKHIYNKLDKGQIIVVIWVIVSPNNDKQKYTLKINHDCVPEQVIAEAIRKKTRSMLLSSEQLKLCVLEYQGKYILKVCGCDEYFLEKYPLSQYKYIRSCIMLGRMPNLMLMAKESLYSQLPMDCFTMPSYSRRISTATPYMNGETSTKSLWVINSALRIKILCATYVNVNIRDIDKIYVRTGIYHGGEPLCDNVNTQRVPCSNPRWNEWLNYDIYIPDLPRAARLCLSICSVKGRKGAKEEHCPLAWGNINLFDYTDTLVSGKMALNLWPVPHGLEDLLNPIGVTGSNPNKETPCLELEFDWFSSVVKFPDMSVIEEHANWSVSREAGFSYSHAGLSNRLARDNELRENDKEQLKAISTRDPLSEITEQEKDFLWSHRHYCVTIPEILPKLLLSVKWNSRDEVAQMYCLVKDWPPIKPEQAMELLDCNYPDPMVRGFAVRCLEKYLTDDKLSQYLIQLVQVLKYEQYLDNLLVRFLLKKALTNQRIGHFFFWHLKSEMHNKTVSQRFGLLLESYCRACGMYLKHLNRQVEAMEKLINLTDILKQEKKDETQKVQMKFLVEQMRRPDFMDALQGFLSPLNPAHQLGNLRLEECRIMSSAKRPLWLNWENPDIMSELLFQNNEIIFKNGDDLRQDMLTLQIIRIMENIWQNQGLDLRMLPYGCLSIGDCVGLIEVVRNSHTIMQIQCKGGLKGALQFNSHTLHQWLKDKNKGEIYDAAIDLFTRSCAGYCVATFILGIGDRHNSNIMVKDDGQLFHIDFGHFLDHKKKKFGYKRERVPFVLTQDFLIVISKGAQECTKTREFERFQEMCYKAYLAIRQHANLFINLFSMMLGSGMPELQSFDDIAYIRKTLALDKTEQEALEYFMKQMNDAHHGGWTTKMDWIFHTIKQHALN

As to `NC(=O)C=Cc1nn(Cc2cc3ccccc3nc2-c2ccccc2F)c2ncnc(N)c12`, the IC50 (usually the concentration at which inhibition is half-maximal) in assay [1] lay within 100 to 1000 nM.
`Cc1nccn1-c1nc2ccccc2cc1Cn1nc(-c2ccc3nc(N)sc3c2)c2c(N)ncnc21`: the IC50 was at most 100 nM in assay [1] and 100 to 1000 nM in assay [2].
In the case of `CC(=O)Nc1nc2ccc(-c3nn(Cc4nc5ccccc5nc4N4CCCC4)c4ncnc(N)c34)cc2s1`, the IC50 in assay [1], in assay [3] and in assay [2] was at most 100 nM each time.
With `CC(=O)Nc1nc2ccc(-c3nn(Cc4nc5ccccc5nc4N4CCN(C)CC4)c4ncnc(N)c34)cc2s1`, the IC50 in assay [1] is at most 100 nM; in assay [3], 100 to 1000 nM; in assay [4], at most 100 nM; in assay [2], 100 to 1000 nM.
With `CCC(c1cc2ccccc2nc1N1CCCC1)n1nc(C#C[C@@H](C)O)c2c(N)ncnc21` (some centres not stated), the IC50 in assay [1] was at most 100 nM.
As for `CN1CCN(c2nc3ccccc3cc2Cn2nc(-c3ccc4nc(N)sc4c3)c3c(N)ncnc32)CC1`, the IC50 in assay [1], in assay [3], in assay [4] and in assay [2] was at most 100 nM each time.
With `CC(c1cc2ccccc2nc1-c1ccccc1)n1nc(-c2cc(O)cc(F)c2)c2c(N)ncnc21` (configuration not stated), the half-maximal inhibitory concentration (IC50) was at most 100 nM in assay [1], at most 100 nM in assay [3], 100 to 1000 nM in assay [4] and 100 to 1000 nM in assay [2].
For `Nc1nc2ccc(-c3nn(Cc4nc5ccccc5nc4N4CCCC4)c4ncnc(N)c34)cc2s1`, the IC50 is at most 100 nM in assay [1], at most 100 nM in assay [3] and 100 to 1000 nM in assay [2].
With `Nc1ncnc2c1c(C=C1SC(=O)NC1=O)nn2Cc1cc2ccccc2nc1-c1ccccc1F`, the IC50 in assay [1] and in assay [3] was at most 100 nM each time.
Regarding `CN1CCN(c2nc3ccccc3nc2Cn2nc(-c3cc(O)cc(F)c3)c3c(N)ncnc32)CC1`, the values for the IC50 in assay [1] and in assay [4] were at most 100 nM and 100 to 1000 nM, respectively.
`Nc1ncnc2c1c(-c1cccc(O)c1)nn2Cc1cc2ccccc2nc1-c1cccnc1` displayed an IC50 in assay [1] of at most 100 nM.
`Nc1nc2ccc(-c3nn(Cc4cc5ccccc5nc4-c4ccccc4C(F)(F)F)c4ncnc(N)c34)cc2[nH]1` gave an IC50 in assay [1] of at most 100 nM.
For `Cc1ccccc1-c1nc2ccccc2cc1Cn1nc(-c2ccc3nc(N)sc3c2)c2c(N)ncnc21`, the half-inhibitory concentration (IC50) in assay [1] and in assay [3] was at most 100 nM each time.
`Nc1ncnc2c1c(-c1ccc3cn[nH]c3c1)nn2Cc1cc2ccccc2nc1N1CCCC1` had an IC50 in assay [1] of at most 100 nM.
On the same count and under the same terms, in the case of `Nc1ncc(-c2nn(Cc3cc4ccccc4nc3-c3ccccc3)c3ncnc(N)c23)cn1` it was 100 to 1000 nM.
